This note sets out measurements from US20110053907A1, “SUBSTITUTED PYRIMIDINES AND TRIAZINES AND THEIR USE IN CANCER THERAPY” (Auckland UniServices Limited, priority 2008, published 2011).

One data set has as its target p110α/p85 (Homo sapiens, UniProt P42336). As to the kind of experiment: Reversible inhibition of isolated enzyme, lipid kinase assay. Particulars: recombinant enzyme, 100 μM ATP, 1 hr, average of two experiments. The data set is classed as biochemical. As to the method:
Compounds were evaluated for their ability to inhibit Class I PI 3-kinase enzymes p110δ/p85, p110α/p85, and p110β/p85. Reaction mixtures comprising 0.1 μg of a recombinant enzyme, 10 μg of L-α-phosphatidylinositol, and 2× Lipid Kinase Buffer (40 mM Tris-HCl, pH 7.4, 200 mM NaCl, 1 mM EDTA), which contains either DMSO only as a control or the test compound in DMSO (the final DMSO concentration is 1%), were activated by the addition of an ATP mix (5 mM MgCl2, 100 μM ATP, and 0.1 μL [γ^33P]ATP). Reactions were incubated at room temperature for 1 hr, and then stopped by the addition of 1M HCl. The lipids were then extracted using a two step procedure. Firstly, 200 μL of chloroform/methanol (1:1) was added, the biphasic reactions mixed and centrifuged briefly, and the inorganic phase was removed and discarded. Following this, 80 μL of methanol:HCl (1:1) was added and the same procedure followed. The organic phase (70 μL) was then transferred to a clean 1.6 mL tube and the reactions were dried using a Speedvac, with no heating, for 30 min. The reactions were spotted onto TLC plates (Merck Ltd) and developed for 1 hr in propanol-1:2 M acetic acid (13:7). The TLC plates were then dried at room temperature and quantified using a phosphorimager (StormImager, Amersham). Nine compound concentrations were used for each test compound to determine its IC50 value. Each experiment was performed twice and the average IC50 value is used herein.

The structures appear in SMILES notation.

p110α/p85, sequence (P42336 whole entry): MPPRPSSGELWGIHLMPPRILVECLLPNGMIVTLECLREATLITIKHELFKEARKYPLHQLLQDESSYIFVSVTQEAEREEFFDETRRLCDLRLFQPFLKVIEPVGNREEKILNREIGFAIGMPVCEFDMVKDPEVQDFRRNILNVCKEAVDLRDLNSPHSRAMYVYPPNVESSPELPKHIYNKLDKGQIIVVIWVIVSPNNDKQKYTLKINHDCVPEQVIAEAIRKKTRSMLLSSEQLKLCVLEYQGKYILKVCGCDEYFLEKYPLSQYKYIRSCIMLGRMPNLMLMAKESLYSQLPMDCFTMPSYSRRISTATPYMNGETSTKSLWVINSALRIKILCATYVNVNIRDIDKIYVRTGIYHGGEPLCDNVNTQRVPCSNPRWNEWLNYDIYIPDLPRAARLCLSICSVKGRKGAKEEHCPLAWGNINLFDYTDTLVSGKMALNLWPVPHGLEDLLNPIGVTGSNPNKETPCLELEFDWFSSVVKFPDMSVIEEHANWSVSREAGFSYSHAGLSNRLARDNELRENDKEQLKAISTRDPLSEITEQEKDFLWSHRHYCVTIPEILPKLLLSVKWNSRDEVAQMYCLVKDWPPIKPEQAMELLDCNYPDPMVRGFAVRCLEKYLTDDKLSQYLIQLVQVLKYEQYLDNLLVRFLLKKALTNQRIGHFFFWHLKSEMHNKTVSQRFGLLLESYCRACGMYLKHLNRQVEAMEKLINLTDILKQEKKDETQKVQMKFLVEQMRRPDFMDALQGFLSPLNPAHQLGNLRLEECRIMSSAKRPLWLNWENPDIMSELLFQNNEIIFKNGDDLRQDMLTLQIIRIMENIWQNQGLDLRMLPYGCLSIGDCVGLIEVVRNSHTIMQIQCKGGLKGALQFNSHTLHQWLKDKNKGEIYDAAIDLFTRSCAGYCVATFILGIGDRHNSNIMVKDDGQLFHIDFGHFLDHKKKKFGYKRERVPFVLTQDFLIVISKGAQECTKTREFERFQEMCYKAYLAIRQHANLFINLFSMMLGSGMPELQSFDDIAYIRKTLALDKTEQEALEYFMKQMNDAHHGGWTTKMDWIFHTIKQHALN
p110α/p85, sequence (P27986 whole entry partner): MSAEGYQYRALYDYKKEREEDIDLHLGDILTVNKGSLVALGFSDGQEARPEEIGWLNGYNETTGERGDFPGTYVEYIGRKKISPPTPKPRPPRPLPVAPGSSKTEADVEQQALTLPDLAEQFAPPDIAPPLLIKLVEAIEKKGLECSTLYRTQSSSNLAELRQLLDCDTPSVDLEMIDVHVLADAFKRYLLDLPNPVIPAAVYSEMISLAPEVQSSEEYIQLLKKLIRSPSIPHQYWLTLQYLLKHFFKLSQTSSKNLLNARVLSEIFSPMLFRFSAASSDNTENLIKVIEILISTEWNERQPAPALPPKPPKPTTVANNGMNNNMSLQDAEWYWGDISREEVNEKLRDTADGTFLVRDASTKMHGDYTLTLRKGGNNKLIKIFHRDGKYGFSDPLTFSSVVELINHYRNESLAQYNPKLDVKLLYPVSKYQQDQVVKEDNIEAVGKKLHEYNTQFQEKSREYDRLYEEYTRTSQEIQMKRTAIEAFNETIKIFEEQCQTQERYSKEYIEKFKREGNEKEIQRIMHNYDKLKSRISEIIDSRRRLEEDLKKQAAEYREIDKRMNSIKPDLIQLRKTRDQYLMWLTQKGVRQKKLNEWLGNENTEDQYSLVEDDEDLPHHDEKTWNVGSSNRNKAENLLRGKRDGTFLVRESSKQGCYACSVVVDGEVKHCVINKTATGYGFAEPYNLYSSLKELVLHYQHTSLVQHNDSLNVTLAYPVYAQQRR

Regarding `COc1cccc2c1nc(C(F)F)n2-c1cc(N2CCN(S(=O)(=O)CCl)CC2)nc(N2CCOCC2)n1` [Example 15, 1-[6-{4-[(chloromethyl)sulfonyl]-1-piperazinyl}-2-(4-morpholinyl)-4-pyrimidinyl]-2-(difluoromethyl)-4-methoxy-1H-benzimidazole], the melting point (usually the temperature, or range, at which the solid turns liquid) was in the range of 220 to 222 °C. For the same compound, on p110α/p85, the IC50 (commonly the point on the concentration scale where inhibition reaches its midpoint) lay within 100 to 1000 nM.
Consider `COc1cccc2c1nc(C(F)F)n2-c1cc(N2CCOCC2)nc(N2CCN(S(=O)(=O)CCl)CC2)n1` [Example 16, 1-[2-{4-[(chloromethyl)sulfonyl]-1-piperazinyl}-6-(4-morpholinyl)-4-pyrimidinyl]-2-(difluoromethyl)-4-methoxy-1H-benzimidazole], for which the melting point lay in the range of 215 to 218 °C. Further, on p110α/p85, the IC50 was under 100 nM.
`COc1cccc2c1nc(C(F)F)n2-c1nc(C2CCN(C(=O)CCl)CC2)nc(N2CCOCC2)n1` [Example 17, 1-[4-[1-(chloroacetyl)-4-piperidinyl]-6-(4-morpholinyl)-1,3,5-triazin-2-yl]-2-(difluoromethyl)-4-methoxy-1H-benzimidazole] returned a melting point of 241 to 243 °C. In addition, at p110α/p85, the IC50 was under 100 nM.
In turn, `COc1cccc2c1nc(C(F)F)n2-c1nc(NC2CCN(C(=O)CCl)CC2)nc(N2CCOCC2)n1` [Example 18, N-[1-(chloroacetyl)-4-piperidinyl]-4-[2-(difluoromethyl)-4-methoxy-1H-benzimidazol-1-yl]-6-(4-morpholinyl)-1,3,5-triazin-2-amine] showed a melting point of 270 to 273 °C. The IC50 at p110α/p85 is under 100 nM.
The matching figures for `COc1cccc2c1nc(C(F)F)n2-c1nc(N2CCOCC2)nc(N(C)C2CCN(C(=O)CCl)CC2)n1` [Example 19, N-[1-(chloroacetyl)-4-piperidinyl]-4-[2-(difluoromethyl)-4-methoxy-1H-benzimidazol-1-yl]-N-methyl-6-(4-morpholinyl)-1,3,5-triazin-2-amine]: 211 to 213 °C and under 100 nM.
The matching figures for `COc1cccc2c1nc(C(F)F)n2-c1nc(N2CCOCC2)nc(N(C)C2CCN(S(=O)(=O)CCl)CC2)n1` [Example 21, N-{1-[(chloromethyl)sulfonyl]-4-piperidinyl}-4-[2-(difluoromethyl)-4-methoxy-1H-benzimidazol-1-yl]-N-methyl-6-(4-morpholinyl)-1,3,5-triazin-2-amine]: 212 to 215 °C and under 100 nM.
For `COc1cccc2c1nc(C(F)F)n2-c1nc(N2CCOCC2)nc(N2CCC(NC(=O)CCl)CC2)n1` [Example 22, 2-chloro-N-{1-[4-[2-(difluoromethyl)-4-methoxy-1H-benzimidazol-1-yl]-6-(4-morpholinyl)-1,3,5-triazin-2-yl]-4-piperidinyl}acetamide], in that order: 252 to 254 °C and under 100 nM.
In turn, `COc1cccc2c1nc(C(F)F)n2-c1nc(N2CCOCC2)nc(N2CCC(N(C)C(=O)CCl)CC2)n1` [Example 23, 2-chloro-N-{1-[4-[2-(difluoromethyl)-4-methoxy-1H-benzimidazol-1-yl]-6-(4-morpholinyl)-1,3,5-triazin-2-yl]-4-piperidinyl}-N-methylacetamide] yielded a melting point of 206 to 208 °C. The IC50 at p110α/p85 was under 100 nM.
The matching figures for `COc1cccc2c1nc(C(F)F)n2-c1nc(N2CCOCC2)nc(N2CC[C@@H](NC(=O)CCl)C2)n1` [Example 25, 2-chloro-N-{(3R)-1-[4-[2-(difluoromethyl)-4-methoxy-1H-benzimidazol-1-yl]-6-(4-morpholinyl)-1,3,5-triazin-2-yl]pyrrolidinyl}acetamide]: 270 to 275 °C and under 100 nM.
The matching figures for `COc1cccc2c1nc(C(F)F)n2-c1nc(N2CCOCC2)nc(N2CC[C@@H](N(C)C(=O)CCl)C2)n1` [Example 27, 2-chloro-N-{(3R)-1-[4-[2-(difluoromethyl)-4-methoxy-1H-benzimidazol-1-yl]-6-(4-morpholinyl)-1,3,5-triazin-2-yl]pyrrolidinyl}-N-methylacetamide]: 231 to 233 °C and under 100 nM.
For `COc1cccc2c1nc(C(F)F)n2-c1nc(N2CCOCC2)nc(N2CC[C@H](N(C)C(=O)CCl)C2)n1` [Example 28, 2-chloro-N-{(3S)-1-[4-[2-(difluoromethyl)-4-methoxy-1H-benzimidazol-1-yl]-6-(4-morpholinyl)-1,3,5-triazin-2-yl]pyrrolidinyl}-N-methylacetamide], in that order: 230 to 232 °C and under 100 nM.
As for `COc1cccc2c1nc(C(F)F)n2-c1nc(N[C@@H]2CCN(C(=O)CCl)C2)nc(N2CCOCC2)n1` [Example 29, N-[(3R)-1-(chloroacetyl)pyrrolidinyl]-4-[2-(difluoromethyl)-4-methoxy-1H-benzimidazol-1-yl]-6-(4-morpholinyl)-1,3,5-triazin-2-amine], the melting point lay in the range of 208 to 210 °C. In addition, at p110α/p85, the IC50 was under 100 nM.
The matching figures for `COc1cccc2c1nc(C(F)F)n2-c1nc(N[C@H]2CCN(C(=O)CCl)C2)nc(N2CCOCC2)n1` [Example 30, N-[(3S)-1-(chloroacetyl)pyrrolidinyl]-4-[2-(difluoromethyl)-4-methoxy-1H-benzimidazol-1-yl]-6-(4-morpholinyl)-1,3,5-triazin-2-amine]: 208 to 211 °C and under 100 nM.
For `COc1cccc2c1nc(C(F)F)n2-c1nc(N2CCOCC2)nc(N(C)[C@@H]2CCN(C(=O)CCl)C2)n1` [Example 31, N-[(3R)-1-(chloroacetyl)pyrrolidinyl]-4-[2-(difluoromethyl)-4-methoxy-1H-benzimidazol-1-yl]-N-methyl-6-(4-morpholinyl)-1,3,5-triazin-2-amine], in that order: 219 to 221 °C and under 100 nM.
Compound `COc1cccc2c1nc(C(F)F)n2-c1nc(N2CCOCC2)nc(N(C)[C@H]2CCN(C(=O)CCl)C2)n1` [Example 32, N-[(3S)-1-(chloroacetyl)pyrrolidinyl]-4-[2-(difluoromethyl)-4-methoxy-1H-benzimidazol-1-yl]-N-methyl-6-(4-morpholinyl)-1,3,5-triazin-2-amine] came in with a melting point of 219 to 221 °C. In addition, the IC50 at p110α/p85 is under 100 nM.
For `COc1cccc2c1nc(C(F)F)n2-c1nc(N2CCOCC2)nc(N2CCC[C@@H](NC(=O)CCl)C2)n1` [Example 33], in that order: 231 to 233 °C and under 100 nM.
For `COc1cccc2c1nc(C(F)F)n2-c1nc(N2CCOCC2)nc(N2CCC[C@H](NC(=O)CCl)C2)n1` [Example 34, 2-chloro-N-{(3S)-1-[4-[2-(difluoromethyl)-4-methoxy-1H-benzimidazol-1-yl]-6-(4-morpholinyl)-1,3,5-triazin-2-yl]piperidinyl}acetamide], in that order: 227 to 229 °C and under 100 nM.
The matching figures for `COc1cccc2c1nc(C(F)F)n2-c1nc(N2CCOCC2)nc(N2CCC[C@@H](N(C)C(=O)CCl)C2)n1` [Example 35, 2-chloro-N-{(3R)-1-[4-[2-(difluoromethyl)-4-methoxy-1H-benzimidazol-1-yl]-6-(4-morpholinyl)-1,3,5-triazin-2-yl]piperidinyl}-N-methylacetamide]: 201 to 203 °C and under 100 nM.
